# Source: US9474749B2 (priority 2004, dated 2016)
# What was measured:
# pedal ganglia = assay: NO release from excised pedal ganglia (NO-selective microprobe); type: cell-based, Mytilus edulis
# Method: For the nitric oxide assay, ten pedal ganglia (per determination) dissected from M. edulis were bathed in 1 mL sterile phosphate buffered saline (PBS). […] For the opiate receptor antagonist experiments, ganglia were pretreated with naloxone for 10 minutes prior to reticuline addition. NO release was monitored with an NO-selective microprobe manufactured by World Precision Instruments (Sarasota, Fla.). The sensor was positioned approximately 100 μm above the respective tissue surface. […] The NO detection system was calibrated daily. The probe was allowed to equilibrate for 10 minutes in the incubation medium free of tissue before being transferred to vials containing the ganglia for another 5 minutes. Manipulation and handling of the ganglia was only performed with glass instruments. Data was acquired using the Apollo-4000 free radical analyzer (World Precision Instruments, Sarasota, Fla.). The experimental values were then transferred to Sigma-Plot and -Stat (Jandel, Calif.) for graphic representation and evaluation.
# mu3 opiate receptor [1] = molecular target: mu3 opiate receptor (Mytilus edulis, UniProt A0A8S3SM58); assay: Displacement of 3H-dihydromorphine, pedal ganglia membrane suspension; type: binding
# Method: An additional 100 excised pedal ganglia and the human monocytes were separately washed and homogenized in 50 volumes of 0.32 M sucrose, pH 7.4, at 4° C. using a Brinkmann polytron (30 seconds, setting no. 5). The crude homogenate was centrifuged at 900×g for 10 minutes at 4° C., and the supernatant was reserved on ice. The whitish crude pellet was resuspended by homogenization (15 seconds, setting no. 5) in 30 volumes of 0.32 M sucrose/Tris-HCl buffer, pH 7.4, and centrifuged at 900×g for 10 minutes. The extraction procedure was repeated one more time, and the combined supernatants were centrifuged at 900×g for 10 minutes. The resulting supernatants (S1′) were used immediately. […] The P2 pellet was then re-suspended with a Dounce hand-held homogenizer (10 strokes) in 100 volumes of buffer. Binding analysis was then performed on the cell membrane suspensions.
# Aliquots of membrane suspension (0.2 mL, 0.12 mg of membrane protein) were incubated in triplicate at 22° C. for 40 minutes with the appropriate radiolabeled ligand in the presence of dextrorphan (10 mM) or levorphanol (10 mM) in 10 mM Tris-HCl buffer, pH 7.4, containing 0.1% BSA and 150 mM KCl. […] The filters were rapidly washed with 2.5 mL aliquots of the incubation buffer (4° C.), containing 2% polyethylene glycol 6000 (Baker). […] Protein concentration was determined in membrane suspensions (prepared in the absence of BSA).
# mu3 opiate receptor [2] = molecular target: T1, mu3 opiate receptor (Homo sapiens, UniProt P35372); assay: biochemical; type: binding; settings: read-out: Monocytes IC50, displacement of 3H-dihydromorphine; mean +/− S.E.M., three experiments
# T1 construct: An additional 100 excised pedal ganglia and the human monocytes were separately washed and homogenized; host or cells: human monocytes
# Method: For the nitric oxide assay, ten pedal ganglia (per determination) dissected from M. edulis were bathed in 1 mL sterile phosphate buffered saline (PBS). […] NO release was monitored with an NO-selective microprobe manufactured by World Precision Instruments (Sarasota, Fla.). The sensor was positioned approximately 100 μm above the respective tissue surface. […] The NO detection system was calibrated daily. The probe was allowed to equilibrate for 10 minutes in the incubation medium free of tissue before being transferred to vials containing the ganglia for another 5 minutes. Manipulation and handling of the ganglia was only performed with glass instruments. Data was acquired using the Apollo-4000 free radical analyzer (World Precision Instruments, Sarasota, Fla.). The experimental values were then transferred to Sigma-Plot and -Stat (Jandel, Calif.) for graphic representation and evaluation.
# An additional 100 excised pedal ganglia and the human monocytes were separately washed and homogenized in 50 volumes of 0.32 M sucrose, pH 7.4, at 4° C. using a Brinkmann polytron (30 seconds, setting no. 5). The crude homogenate was centrifuged at 900×g for 10 minutes at 4° C., and the supernatant was reserved on ice. The whitish crude pellet was resuspended by homogenization (15 seconds, setting no. 5) in 30 volumes of 0.32 M sucrose/Tris-HCl buffer, pH 7.4, and centrifuged at 900×g for 10 minutes. The extraction procedure was repeated one more time, and the combined supernatants were centrifuged at 900×g for 10 minutes. The resulting supernatants (S1′) were used immediately. […] The P2 pellet was then re-suspended with a Dounce hand-held homogenizer (10 strokes) in 100 volumes of buffer. […]
# Aliquots of membrane suspension (0.2 mL, 0.12 mg of membrane protein) were incubated in triplicate at 22° C. for 40 minutes with the appropriate radiolabeled ligand in the presence of dextrorphan (10 mM) or levorphanol (10 mM) in 10 mM Tris-HCl buffer, pH 7.4, containing 0.1% BSA and 150 mM KCl. […] Protein concentration was determined in membrane suspensions (prepared in the absence of BSA).
# [3] = system: Mytilus edulis pedal ganglia; assay: Endogenous morphine levels in excised pedal ganglia incubated in vitro (HPLC, RIA); type: cell-based
# NCI-H295R cells = assay: Morphine production by NCI-H295R cells (RIA); type: cell-based, human; settings: one half million cells, 100 ng of reticuline, 24 hours; control about 9.6±3.5
# Text: Human cells (NCI-H295R) were adapted from the NCI-H295 pluripotent adrenocortical carcinoma cell line (ATCC CRL-10296), which is from a carcinoma of the adrenal cortex. The original cells were adapted to a culture medium that decreased the population doubling time from 5 days to 2 days. While the original cells grew in suspension, the adapted cells were selected to grow in a monolayer. These cells retained the ability to produce adrenal androgens and were responsive to angiotensin II and potassium ions. To propagate these cells, the culture medium was a 1:1 mixture of Dulbecco's modified Eagle's medium and Ham's F12 medium containing 15 mM HEPES, 0.00625 mg/mL insulin, 0.00625 mg/mL transferrin, 6.25 ng/mL selenium, 1.25 mg/mL bovine serum albumin, and 0.00535 mg/mL linoleic acid, 97.5%; Nu-Serum I, 2.5%. See, e.g., Rainey et al., Mol. Cell. Endocrinol., 100:45-50 (1994); Gazdar et al., Cancer Res., 50:5488-5496 (1990); and Bird et al., Endocrinology, 133:1555-1561 (1993)).
# The cells were subcultured in 6 well cell culture cluster (Corning Inc.) 24 hours before the experiment. The amount of cells was determined by Microscope (Nickon inc). Various amounts of reticuline were added to the cells, and the cells were cultured with an NAPCO incubator. The incubation was terminated after 24 hours by adding 10 NHCl.
# [4] = system: human white blood cells / PMNs; assay: Morphine production by human WBC and PMNs (HPLC, RIA); type: cell-based
# [5] = system: Mytilus edulis pedal ganglia; assay: Ganglionic morphine levels after injection into the foot of intact animals; settings: one hour after injection into the foot
# Method: For in vivo precursor injection experiments, the animal's foot was injected with either reticuline or L-DOPA (0.1 and 1 μg/injection, respectively). Chemicals were injected by BD 1 cc syringes with 26 G needles. Each needle was inserted into that base of the foot just above the pedal ganglia.
# For in vivo treatments, the animal's foot (20 animals per treatment) was injected with tyrosine (10^−5 M), tyramine (10^−5 M), or saline. Other animals were exposed to the enzyme inhibitors AMPT or quinidine alone or immediately following the respective foot injection. […] All chemicals were purchased from Sigma (St. Louis, Mo.).
# [6] = system: SK-N-SH neuroblastoma cell line; type: cell-based, human
# Method: Cell viability was determined via Trypan blue exclusion. An inverted light microscope (Nikon) with a phase-contrast filter was used to observe the cells. Pictures of the cells were taken via a digital camera (Optronix) attached to the microscope ocular. Images were uploaded onto ImagePro Plus Software (Applied Biosystems), where cell viability was calculated based on both the number of cells covering the field and the cells that present as dead from the stain. In addition, ImagePro Plus was used for determining cellular morphology. The area and perimeter were found and used in the formula (4π*Area)/(Perimeter)^2, resulting in a value between 0 (a straight line) and 1 (a perfect circle).
# NMDA NR1 Subunit = assay: NMDA NR1 subunit mRNA expression (RT-PCR); type: cell-based, human
# Method: (§1) Isolation of total RNA was performed via RNA MiniPrep Kit (QIAGEN). Concentration of RNA was determined via GeneQuant II Spectrophotometer (Pharmacia Biotech) by multiplying A260 value with dilution factor and nucleic acid constant (0.04). Agarose gel electrophoresis (1%) was used to check for RNA quality.
# (§2) RT and PCR reactions were performed in GeneAmp PCR System 9700 (Applied Biosystems) using reverse transcriptase and Taq DNA Polymerase. Forward and reverse gene specific-primers for various subunits of the 20S proteasome and immunoproteasome were either obtained from the literature or designed through Primer Express Software 2.0 (Applied Biosystems) (Table 4). NMDA receptor subunit primers were also designed (Table 4). NMDA receptor expression was used as a marker of neurodegenerative disease.
# (§3) All primers were optimized for annealing temperatures and cycles (Table 5). Gel electrophoresis (2% agarose, 0.01% ethidium bromide) was performed and analyzed using a UV transilluminator (UVP) and GelPro Analyzer Software (Applied Biosystems). Relative band intensity was normalized with β-Actin reference gene.
# NMDA NR2B Subunit = assay: NMDA NR2B subunit mRNA expression (RT-PCR); type: cell-based, human
# Method: as §1, §2, §3
# [7] = system: 20S Proteasome X (β5) Subunit; assay: 20S proteasome X subunit protein (Western blot); type: cell-based, human; settings: rotenone
# Method: (§4) To determine protein concentrations, protein was harvested using the following buffer: 20 mM Hepes (Sigma), 100 mM NaCl (Fisher), 10 mM NaF (Sigma), 1% Triton X-100 (Sigma), 1 mM sodium orthovanadate (Sigma), 10 mM EDTA (Sigma), pH 7.4, 0.1% protease inhibitor cocktail (Sigma), and ddH2O. Homogenized samples were spun in an ultracentrifuge at 10,000G for 20 minutes at 4° C. Concentration was determined via the Bradford assay (Bio-Rad) using bovine serum albumin (BSA, Sigma) for standard curve. To eliminate any potential pipetting error, samples and standards were read in triplicate.
# (§5) Western blotting was performed as follows. SDS-polyacrylamide gels (12% for separation and 5% for stacking) were made using the Mini Trans-Blot Cell (Bio-Rad). Based on the concentrations from the protein concentration determination assay, the proteins were mixed with 2× Protein Loading Buffer (0.2M DTT) for a final volume of 24 μL. Tris-Glycine Electrophoresis Buffer (1×) was used in SDS-PAGE, and proteins were separated at constant amperage (35 mA).
# (§6) Subsequent protein transfer to a nitrocellulose membrane involved use of the Mini Trans-Blot Cell apparatus run at constant voltage (100V) for 40 minutes. […]
# (§7) Substrate (Pierce) was administered as a means of stimulating chemiluminescence. Blots were developed and subsequently analyzed for relative band intensity using Gel-Pro software (Applied Biosystems).
# 26S proteasome = assay: Chymotrypsin activity of the 26S proteasome (fluorometric); type: cell-based, human; settings: rotenone 30 nM; morphine 5 μM; control 236±4.8
# Method: (§8) Proteasome function assays were performed in an effort to examine the modulation in levels of protein degradation. Fluorometric assays were performed for both the chymotrypsin activity of the 26S proteasome as well as activity of the whole 20S proteasome using procedures adapted from Kotamraju et al. (Proc. Natl. Acad. Sci. USA, 100:10653-8 (2003)). Excitation at 365 nm and emission at 460 nM of the fluorogenic compound, […] (AMC), were measured using a Spectrofluoroscence Detector (McPherson).
# 20S proteasome = assay: Activity of the whole 20S proteasome (fluorometric); type: cell-based, human; settings: rotenone 30 nM; morphine 5 μM
# Method: as §8
# SH-SY5Y cells = assay: M6G-induced NO release from SH-SY5Y cells; type: cell-based, human; settings: 1 hour pre-treatment, 1 μM M6G
# Method: The production of NO in SH-SY5Y cells was detected using the Apollo 4000 Free Radical Analyzer (World Precision Instruments). SH-SY5Y cells were trypsinized and cultured in a 6-well plate for 48 hours. An L-shaped amperometric NO-specific probe was connected to the Apollo Analyzer and calibrated using a SNAP+CuCl2 solution, which releases calculable amounts of NO. […] At the end of the treatment time-point, the media was removed and replaced with PBS warmed in a 37° C. bath, which is non-reactive with the probe. The probe was inserted about 1.5 mm above the cells and allowed to equilibrate for 5 minutes. […] The probe was monitored in real-time for the production of NO “spikes.” NO data was recorded using Free Radical Analyzer (World Precision Instruments). Cells were then discarded.
# mu3 opiate receptor [8] = settings: 10^−6 M CTOP 10 minutes prior
# Method: In addition, the cells were either incubated with or without 10^−6 M CTOP 10 minutes prior to adding M6G.
# human saphenous veins = assay: NO release from human saphenous veins; settings: 10^−6 M CTOP 10 minutes before morphine
# [9] = system: SK-N-SH neuroblastoma cell line; assay: Cellular morphology (Form Factor) of neuroblastoma cells; type: cell-based, human; settings: IFNγ treatment; control 0.54±0.02
# [10] = system: 20S Proteasome LMP7 Subunit (β5i); assay: LMP7 immunoproteasome subunit mRNA expression (RT-PCR); type: cell-based, human; settings: IFNγ 20 ng/mL, 24 hours; control 0.29±0.01
# Method: as §1, §2, §3
# [11] = system: Immunoproteasome LMP7 (β5i) Subunit; assay: LMP7 polypeptide expression (Western blot); type: cell-based, human; settings: IFNγ
# Method: as §4, §5, §6, §7
# Sequence of mu3 opiate receptor (Mytilus edulis, UniProt A0A8S3SM58) (A0A8S3SM58 1-388): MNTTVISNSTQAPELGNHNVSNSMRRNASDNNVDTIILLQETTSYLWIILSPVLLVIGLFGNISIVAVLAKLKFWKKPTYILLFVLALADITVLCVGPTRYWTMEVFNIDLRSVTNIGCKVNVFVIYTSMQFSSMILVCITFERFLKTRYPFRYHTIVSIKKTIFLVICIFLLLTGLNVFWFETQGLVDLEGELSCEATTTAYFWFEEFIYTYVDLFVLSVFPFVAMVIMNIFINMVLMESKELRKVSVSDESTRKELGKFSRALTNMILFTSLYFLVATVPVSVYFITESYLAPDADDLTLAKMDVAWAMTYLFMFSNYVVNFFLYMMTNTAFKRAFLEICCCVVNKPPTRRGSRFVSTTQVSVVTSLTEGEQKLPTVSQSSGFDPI
# T1 sequence (P35372 1-314 isoform P35372-14): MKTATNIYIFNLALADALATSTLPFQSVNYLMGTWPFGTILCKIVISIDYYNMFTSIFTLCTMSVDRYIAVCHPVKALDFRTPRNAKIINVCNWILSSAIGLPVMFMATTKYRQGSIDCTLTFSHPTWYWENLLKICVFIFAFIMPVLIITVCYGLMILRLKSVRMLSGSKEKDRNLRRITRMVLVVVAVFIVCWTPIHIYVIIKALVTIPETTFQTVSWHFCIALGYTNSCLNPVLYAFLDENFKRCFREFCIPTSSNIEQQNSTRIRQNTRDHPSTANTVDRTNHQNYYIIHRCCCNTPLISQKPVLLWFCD
molecule,measurement,setting,value
"COc1ccc(C[C@H]2c3cc(O)c(OC)cc3CCN2C)cc1O [Reticuline, reticuline]",NO Peak Level,pedal ganglia; ligand 10^−7 M,17.6 ± 3.8 nM
same,NO Peak Time,pedal ganglia; ligand 10^−7 M,9.2 ± 1.5 min
same,delay before ganglionic NO release,pedal ganglia; reticuline 10^−7 M,three-minute delay
same,duration of ganglionic NO release,"pedal ganglia; reticuline 10^−7 M, morphine 10^−6 M",17 min
same,affinity for the mu3 opiate receptor,mu3 opiate receptor [1],does not exhibit an affinity
same,IC50,"mu3 opiate receptor [1]; read-out: Pedal Ganglia IC50, displacement of 3H-dihydromorphine, mean +/− S.E.M., three experiments",> 1 µM
same,IC50,mu3 opiate receptor [2],> 1 µM
same,endogenous morphine level in ganglia (HPLC),"[3]; 50 ng of reticuline, 1 hour, control 1.43±0.41",6.7±0.7 ng/mg tissue wet weight
same,morphine production in mantle tissues,"[3]; 50 ng of reticuline, mantle tissues",did not produce detectable morphine
same,morphine per mg ganglion,[3]; 100 ng of reticuline,about 5.0±0.47 ng morphine per mg ganglion
same,ganglionic morphine level (RIA),"[3]; 100 ng of reticuline, one hour, control 1.33±0.61",about 14.53±4.6 ng/mg
same,"ganglionic morphine level (HPLC, FIG. 1 legend)","[3]; 0.5 μg of reticuline, 1 hour",5 ng/mg morphine tissue wet weight
same,ganglionic morphine levels after exposure,[3]; 10^−6 M (FIG. 20),significantly enhanced morphine levels
same,ganglionic morphine levels versus control,"[3]; 50 and 100 ng, 60 minutes, in vitro",significantly higher
same,morphine produced by cells,NCI-H295R cells,about 28±5.4 ng
same,WBC morphine concentrations versus untreated cells,[4]; P<0.001,significantly increased WBC morphine concentrations
same,Morphine levels in media after the cells were removed,"[4]; PMNs 3×10^6 cells, THP 100 μg, reticuline 50 μg, L-DOPA 100 μg, L-tyrosine 100 μg",2.112 ± 0.33
same,morphine concentrations in WBC,"[4]; one-hour treatment, control 12.33±5.64",136.04±8.71 pg/million cells
same,pedal ganglionic morphine levels after injection,[5],significantly increased pedal ganglionic morphine levels
C=C(C)[C@H]1Cc2c(ccc3c2O[C@@H]2COc4cc(OC)c(OC)cc4[C@@H]2C3=O)O1 [Rotenone],"LD50, cellular death of neuroblastoma cells",[6]; human,30 nM
same,confluency,"[6]; rotenone 30 nM, 48-hour incubation",about 45%
same,NR1 expression,"NMDA NR1 Subunit; rotenone 30 nM (LD50), control 1.57±0.072",1.22±0.010 AU
same,NR1 expression,NMDA NR1 Subunit; rotenone 40 nM,1.21±0.028 AU
same,NR2B expression,"NMDA NR2B Subunit; rotenone 30 nM (LD50), control 0.98±0.02",1.22±0.08 AU
same,NR2B expression,NMDA NR2B Subunit; rotenone 40 nM,1.49±0.02 AU
same,X subunit protein band intensity,[7],182 AU
same,activity of the chymotrypsin functional 26S active site,26S proteasome,221 ± 4.8 pM
same,20S proteasome activity,20S proteasome,Significant increase in activity of the 20S proteasome
Aβ1-42: β-amyloid peptide (Aβ) 1-42,M6G-induced NO release after Aβ1-42 pre-treatment,SH-SY5Y cells,dose-dependent decrease in NO release
CTOP,effect of CTOP on M6G-induced mu3 expression,mu3 opiate receptor [8],blocked by CTOP pre-treatment
same,morphine-induced NO release after CTOP pre-treatment,human saphenous veins,no NO release was detected
IFNγ: interferon used to simulate an immune response,Form Factor (FF),[9],0.76±0.02
same,LMP7 mRNA expression,[10],0.93±0.06
same,LMP7 polypeptide expression,[11],caused an increase in LMP7 polypeptide expression
